Test [1] relates to sKD-C cells. Put plainly: Gene/protein expression and CD44+/CD24-/low FACS in sKD-C cells treated with sumoylation inhibitors. The format is cell-based, human. Particulars: for CD44+/CD24-/low population by FACS analysis / CD44 expression by Western blot: s-KD-C cells, FIG. 6A; for ability to repress CD44 expression with knockdown of TFAP2A: TFAP2A siRNA, Western blot FIG. 6B. The protocol:
The human breast cancer cell lines (MCF-7, SKBR-3, BT-20, BT-549, MCF-10A) were obtained from American Type Culture Collection. sKD-C cells were subcloned from parental MCF-7 cells with stable knockdown of TFAP2C as described (Cyr et al., 2014). ER<-positive tumors and the basal cancer tumor were obtained from surgical resection specimens. Cell suspensions were prepared with gentle collagenase/hyaluronidase (Stemcells) (Ponti et al., 2005). A new cell line was established from the basal tumor cells, called IOWA-1T (manuscript in preparation).
Total RNA was isolated and analyzed as previously described. Expression values were normalized to the mean of 18S rRNA 4319413E-0803037 (Applied Biosystems) as endogenous control.
(§1) Western blots were performed as previously described (Cyr et al., 2014; Kulak et al., 2013). For immunoprecipitations anti-TFAP2A, anti-GFP antibody (Life Technologies) or IgG (#sc-2025, Santa Cruz Biotechnology) were cross-linked with Dynabeads protein A (Life Technologies). MCF7 protein was incubated with Dynabeads protein A-Abs complex, protein complexes were washed with DPBS (Gibco) with 0.01% Tween (Research Products International Corp.), and eluted with SDS loading buffer.
(§2) Cells were plated ([…]/10 cm2) and treated with 10 μM gingolic or anacardic acid (Sigma) for 2-4 days and collected for qPCR, Western blot and FACS analysis.
FACS analysis was performed as previously described (Roederer and Hardy, 2001).

Test [2] deals with IOWA-1T xenografts. Put plainly: IOWA-1T xenografts, animals gavaged. In kind it is in vivo. Conditions: nude mice inoculated with 1×10^6, 5×10^5 or 2.5×10^5 IOWA-1T cells, gavaged vs vehicle; p=0.025; FIG. 8D. An excerpt:
(§3) FIGS. 8A-8D. SUMO Inhibitors Repressed Outgrowth of Xenografts. FIG. 8A. […] FIG. 8B. Tumor-free survival of nude mice (n=5 per group) inoculated with BT20 cells with animals gavaged with AA vs. vehicle. FIG. 8C. IOWA-1T cells were pre-treated with anacardic acid (AA) or vehicle and mice were followed until requiring euthanasia due to tumor size (Overall Survival). […] FIG. 8D. Nude mice were inoculated with 1×10^6, 5×10^5, or 2.5×10^5 IOWA-1T cells and animals were gavaged with either vehicle or AA; vehicle-gavaged mice developed tumors in 5, 10 and 12 days, respectively.
(§4) To address the effects of GA and AA on tumor initiation, BT20 cells were pretreated with GA or AA compared to vehicle prior to inoculation of xenografts in nude mice. As noted in FIG. 8A, pretreatment of the cells repressed the formation of tumor xenografts, whereas, vehicle treated cells formed xenografts with a median time of 8 weeks. […] We created a breast carcinoma cell line (IOWA-1T) from the basal tumor-derived cells used in FIG. 6A. The IOWA-1T cell line rapidly forms locally advanced tumors in nude mice. Identical experiments using the IOWA-1T basal cell line confirmed that either pre-treating the cancer cells or gavaging animals with AA repressed tumor initiation of xenografts (FIGS. 8C and 8D).
(§5) Statistical analysis was performed using the two-sided Student's T-test for continuous variables. […]

Test [3] relates to Colorectal cancer stem cells (CSC). The test can be described thus: Stem cell markers in primary colorectal cancer stem cells (qPCR, Western blot). The format is cell-based. Particulars: 10 μM, 48 hours. The protocol:
[…]: qPCR, CD44 downregulation after treatment of colorectal CSC with anacardic acid, 48 h. […]: qPCR, ALCAM (activated leucocyte cell adhesion molecule) after treatment of colorectal CSC with anacardic acid, 48 h. FIG. 17C: qPCR, EPCAM (epithelial cell adhesion molecule) after treatment of colorectal CSC with anacardic acid, 48 h. FIG. 17D: Western blot, CD44 downregulation after treatment of colorectal CSC with anacardic acid, 48 h.
Informed consent primary colorectal tumor material was obtained during operation and was transferred to lab. Colorectal cancer stem cells (CSC) were isolated accordingly Cammareri et al, 2008 and treated with 10 μM anacardic acid within 48 hours.

Test [4] deals with SUMO-conjugated proteins, SUMO-conjugated form of TFAP2A in BT549 cells. The test can be described thus: Western blot of SUMO-conjugated proteins in BT549 cells. The format is cell-based, human. Conditions: vs vehicle. The protocol:
FIG. 16. Anacardic Acid Inhibits SUMO-conjugated Proteins. Western blots were performed on protein extracts of BT549 cells treated with vehicle (V) or anacardic acid (AA) and reacted with antibodies for SUMO1, TFAP2A or GAPDH, as indicated. Equal amounts of protein were loaded in each lane. […] GAPDH control indicates equal loading of protein. MW indicates molecular weight markers.
as §1, §2

Test [5] deals with BT20 xenografts. Put plainly: BT20 xenografts, animals gavaged. The format is in vivo. Particulars: BT20 xenografts in nude mice, animals gavaged vs vehicle; FIG. 8B.
Text: as §3
as §4, with “8D). […]” for “8D).”

In test [6] the test system is IOWA-1T xenografts. Put plainly: IOWA-1T xenografts from pre-treated cells. The format is in vivo. Particulars: IOWA-1T cells pre-treated vs vehicle, nude mice; p=0.002; FIG. 8C.
Text: as §3, §4, §5

Where [7] appears, read: sKD-C cells, compared to vehicle treatment, mRNA and protein (FIG. 5E), 10 μM, 2-4 days.

In the case of `CCCCCC/C=C\CCCCCCCc1cccc(O)c1C(=O)O` [GA, (Z)-6-(Pentadec-8-enyl)-2-hydroxybenzoic acid], in test [1] (10 μM, 2-4 days), the “CD44+/CD24-/low population by FACS analysis” value is on record as “significantly reduced” and the “CD44 expression by Western blot” value is on record as “inhibited”. Moreover, in test [1] (sKD-C cells), the “ability to repress CD44 expression with knockdown of TFAP2A” value is listed as “completely eliminated”. In test [1] (sKD-C cells, compared to vehicle treatment, FIG. 5E), the TFAP2C expression result is given as “without altering”. In addition, in test [1] (sKD-C cells, compared to vehicle treatment, FIG. 5E, 10 μM, 2-4 days), the FREM2 expression result is “induced”. For the same compound, in test [1] (setting [7]), the CD44 expression entry is “repressed” and the ERα expression result is given as “induced”.
On to `CCCCCCCCCCCCCCCc1cccc(O)c1C(=O)O` [AA, Anacardic acid (C15:0)], for which the tumor formation entry in test [2] is “failed to form tumors”. Moreover, in test [1] (10 μM, 2-4 days), the “CD44+/CD24-/low population by FACS analysis” value is given as “significantly reduced” and the “CD44 expression by Western blot” value is reported as “inhibited”. Also, the “ability to repress CD44 expression with knockdown of TFAP2A” value in test [1] (sKD-C cells) is recorded as “completely eliminated”. The “CD44 by qPCR” value in test [3] (FIG. 17A) is “down regulated”. Further, the “ALCAM by qPCR” value in test [3] (FIG. 17B) was “down regulated”. The “EPCAM by qPCR” value in test [3] (FIG. 17C) is “down regulated”. Also, the “CD44 by Western blot” value in test [3] (FIG. 17D) is reported as “reduction”. Further, in test [4] (Western blot FIG. 16), the “SUMO conjugated form of TFAP2A” value is recorded as “inhibited” and the “overall expression of TFAP2A” value is recorded as “decrease slightly”. The “SUMO conjugation of proteins globally” value in test [4] (Western blot SUMO1 antibody, FIG. 16) was “inhibited”. Moreover, the “tumor formation (tumor-free survival)” value in test [5] is listed as “failed to form tumors”. Also, in test [6], the “tumor formation (overall survival)” value is on record as “inhibited tumor formation”.

Source of the values: patent publication US20160101076A1, “Use of Sumoylation Inhibitors for Treating Cancer” (priority 2013, published 2016).
